According to patent publication EP0045161A1, “Amides of 4-oxo-5-amidohexanoic acid derivatives” (IMPERIAL CHEMICAL INDUSTRIES PLC, priority 1980, dated 1982):

Target: angiotensin converting enzyme (Homo sapiens, UniProt P12821)
Assay: inhibition of angiotensin converting enzyme (cleavage of angiotensin I or a related synthetic peptide by ACE)
Format: biochemical
Text: ACE is the enzyme which converts angiotensin I to angiotensin II.

Chain of angiotensin converting enzyme (P12821 30-1306, species assumed): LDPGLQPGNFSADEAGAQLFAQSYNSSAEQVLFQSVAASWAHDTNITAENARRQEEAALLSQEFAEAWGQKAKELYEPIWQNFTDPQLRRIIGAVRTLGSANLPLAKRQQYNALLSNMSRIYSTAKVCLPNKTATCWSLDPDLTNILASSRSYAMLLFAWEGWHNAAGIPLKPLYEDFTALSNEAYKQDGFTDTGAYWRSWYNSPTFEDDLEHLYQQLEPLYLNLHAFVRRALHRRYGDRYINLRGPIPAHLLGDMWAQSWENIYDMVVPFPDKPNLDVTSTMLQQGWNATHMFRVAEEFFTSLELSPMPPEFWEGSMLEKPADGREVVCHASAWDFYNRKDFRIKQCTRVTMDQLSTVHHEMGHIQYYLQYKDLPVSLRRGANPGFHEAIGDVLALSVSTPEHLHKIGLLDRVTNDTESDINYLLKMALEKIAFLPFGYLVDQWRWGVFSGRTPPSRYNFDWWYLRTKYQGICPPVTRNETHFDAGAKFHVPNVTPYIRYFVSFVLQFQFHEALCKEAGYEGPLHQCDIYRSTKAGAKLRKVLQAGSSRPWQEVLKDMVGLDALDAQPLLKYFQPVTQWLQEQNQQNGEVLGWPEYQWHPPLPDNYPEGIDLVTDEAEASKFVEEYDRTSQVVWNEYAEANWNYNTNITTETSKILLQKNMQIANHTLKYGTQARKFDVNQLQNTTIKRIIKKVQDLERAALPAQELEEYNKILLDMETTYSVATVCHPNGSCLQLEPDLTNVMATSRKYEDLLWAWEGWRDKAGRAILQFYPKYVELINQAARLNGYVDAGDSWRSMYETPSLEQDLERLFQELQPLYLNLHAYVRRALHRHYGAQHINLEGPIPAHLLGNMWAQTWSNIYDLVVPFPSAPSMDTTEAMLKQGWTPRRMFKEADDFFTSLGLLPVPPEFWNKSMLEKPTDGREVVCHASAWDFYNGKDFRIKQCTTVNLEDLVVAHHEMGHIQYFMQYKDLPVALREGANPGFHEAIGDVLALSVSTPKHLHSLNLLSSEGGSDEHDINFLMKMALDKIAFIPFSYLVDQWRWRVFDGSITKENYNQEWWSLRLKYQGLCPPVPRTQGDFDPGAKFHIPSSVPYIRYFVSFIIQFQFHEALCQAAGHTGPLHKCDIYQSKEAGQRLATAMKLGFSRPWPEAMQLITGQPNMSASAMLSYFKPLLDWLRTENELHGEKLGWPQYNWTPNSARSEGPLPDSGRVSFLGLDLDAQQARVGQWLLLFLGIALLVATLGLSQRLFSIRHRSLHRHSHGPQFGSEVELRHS

SMILES	times more active as an inhibitor or angiotensin converting enzyme (relative to the less polar isomer (Compound No. 6D), isomers at the 5-carbon atom of the hexanoyl chain)	times more active as an inhibitor of angiotensin converting enzyme (relative to the more polar isomer (Compound No. 6B), isomers at the 2-carbon atom of the hexanoyl chain)
CC(CC(=O)C(Cc1ccccc1)NC(=O)c1ccccc1)C(=O)N1CCC[C@H]1C(=O)OC(C)(C)C (single isomer, unassigned) [Compound No. 6C]	100 times	
CC(CC(=O)C(Cc1ccccc1)NC(=O)c1ccccc1)C(=O)N1CCC[C@H]1C(=O)OC(C)(C)C (single isomer, unassigned) [Compound No. 6A]		10 times
